Experiment [1] has as its system dLight1.3b-expressing HEK293T sniffer cells on primary DArgic neurons. The experiment in a line: DA release imaging from cultured DArgic neurons with dLight1.3b sniffer cells. It counts as cell-based, mouse. Conditions: 4-AP 250 µM in perfusion. As for the experimental part:
Primary DA (DA) neurons were grown on a layer of cortical astrocytes. The astrocytes were first prepared from P0-P2 C57BL6 mice, grown in T75 flask and then seeded on collagen/poly-L-lysine coated 15 mm glass coverslips at a concentration of 100,000 cells/ml. The cells were allowed to grow until close to confluence before the seeding of neurons. Primary DArgic neurons were prepared and cultured from P0-P2 mouse pups using a previously described protocol. Briefly, the ventral midbrain of P0-P2 pups was dissected from DAT^IREScre x Ai9 mice in which DA neurons expressed the red fluorescent protein tdTomato. These were produced by crossing DAT^IREScre mice (catalog #006660, Jackson Labs[31]) to Ai9/tdTomato mice (catalog #007905, Jackson Labs[32]). Both of these lines were on a C57BL/6 J background. Midbrain cells were seeded at a concentration of 240,000 cells/ml on top of the astrocyte monolayer and allowed to grow for 10 days (10 DIV). Two days before imaging, expression of dLight1.3b was induced in stable HEK cells with doxycycline. One day prior to imaging, HEK cells were lifted using trypsin, and 150,000 HEK cells were seeded on top of 10 DIV-cultured neurons in doxycycline-supplemented neuronal medium. Imaging was performed on a confocal microscope (Nikon A1 HD25) using a 40X dry objective and a 488 nm laser to excite dLight1.3b and a 546 nm laser to activate tdTomato and identify DA neurons. On the day of imaging, physiological saline containing drugs at the specified concentration ([…], Sigma; SCH23390, Sigma; DETQ, Enamine) were applied on the culture using a computer-controlled perfusion system (Automate system). A field containing one or more DA neurons was selected based on the tdTomato signal. […]
Event detection was performed using a thresholding algorithm adapted from[80]. In brief, the recorded field of view was divided into square ROIs of 55 um x 55 um size. […] A rolling standard deviation was calculated with the same window size. Events were defined as timepoints at which the fluorescence intensity reading exceeds the averaged intensity by 5 standard deviations.

A further experiment deals with DRD1-MSNs. The experiment in a line: Whole-cell electrophysiology of DRD1-MSNs in dorsal striatum brain slices. The experiment is classed as cell-based, mouse. As for the experimental part: For experiments involving SKF38393 application, to identify DRD1 receptor (DRD1)-positive neurons in the dorsal striatum, DRD1:cre mice injected with AAV5-hSyn-dlox-ChrimsonR-tdTomato were used. 3–4 weeks after viral injection, mice were anesthetized with 5% isoflurane and euthanized by decapitation. […] Slices were kept at 34 °C for 10–20 minutes and then at room temperature until recordings. In the recording chamber, slices were superfused with ACSF at 30–32 °C. Patch pipettes (3–7 MΩ) were pulled from borosilicate glass pipettes (GC150T-10, Harvard Apparatus). The internal solution contained (in mM): potassium gluconate 130, MgCl2 4, MgATP 3.4, Na3GTP 0.1, creatine phosphate 10, HEPES 5, and EGTA 1.1. The membrane potential was measured using EPC 10 USB Patch Clamp Amplifiers (HEKA). The access resistance was monitored by a hyperpolarizing step of −10 mV. The identification of DRD1-positive neurons was performed by the presence of red fluorescence protein and photo-evoked current or potential (@2 Hz, 10 ms duration, 2 pulses or 500 ms continuous pulse. light source: Colibri 7, Zeiss; 630 nm wavelength, 1 mW). To assess the excitability of neurons, positive currents were injected (0–500 pA) and the number of action potentials was counted at each current step. To measure input resistance, negative currents were injected (−200 to 0 pA, every 50 pA, 500 ms), as previously described. The resting membrane potential was measured at 0 pA current input.
Action potentials were evoked by current injection (50–500 pA, 500 ms) in current-clamped neurons. Neurons were recorded from in the presence of picrotoxin (100 µM), CGP55485 (0.3 µM), DNQX (10 µM), and MK801 (10 µM) to block GABAA, GABAB, AMPA and NMDA receptors, respectively. DA (10 µM) was applied to brain slices in the presence of cocaine (5 µM) to prevent reuptake.

In another experiment the test system is human DRD1 (hmDRD1). Conditions: human clones; ref Hao et al., 2019; Wang et al., 2018; cited from earlier work.
For the next experiment, the target named is T1, msDRD1 (Mus musculus, UniProt Q61616).
T1 construct: expressed in transfected cells; host or cells: HEK293T
T1 sequence (Q61616 whole entry): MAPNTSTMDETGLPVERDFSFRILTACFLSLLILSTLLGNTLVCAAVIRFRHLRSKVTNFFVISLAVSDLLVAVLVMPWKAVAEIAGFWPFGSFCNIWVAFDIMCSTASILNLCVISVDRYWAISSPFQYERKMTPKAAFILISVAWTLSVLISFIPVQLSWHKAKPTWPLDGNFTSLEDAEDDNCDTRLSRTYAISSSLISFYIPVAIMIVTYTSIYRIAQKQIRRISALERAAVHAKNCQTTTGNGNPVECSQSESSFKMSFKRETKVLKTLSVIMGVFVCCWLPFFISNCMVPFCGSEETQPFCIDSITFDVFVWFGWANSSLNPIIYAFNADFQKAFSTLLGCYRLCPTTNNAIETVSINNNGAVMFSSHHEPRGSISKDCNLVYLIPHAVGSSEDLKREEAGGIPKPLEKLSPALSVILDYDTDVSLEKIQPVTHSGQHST
Conditions: rodent (rat or mouse); ref Hao et al., 2019; Wang et al., 2018; cited from earlier work.

The target in another experiment is dLight1.3b (Homo sapiens, UniProt P21728). The experiment in a line: DA titrations on dLight1.3b-expressing HEK293 cells (confocal fluorescence imaging). Conditions: D1-PAM 5 μM. The experiment is classed as cell-based. As for the experimental part:
Cells were transfected at 50–60% confluency in glass-bottomed dishes (either individually or in 24-well plates) using the Effectene transfection kit (Qiagen) according to manufacturer instructions, and imaged 24–48 h after transfection. The Flp-In™ T-REx™ 293 cells (Thermo Fisher) with a stably integrated dLight1.3b cassette[48] were cultured as follows: the cells were cultured using HEK293T cell medium with the addition of Blasticidin (15 µg/ml) and Hygromycin B (200 µg/ml). To induce the expression of dLight1.3b, doxycycline (500 ng/ml) was added to the culture medium for 24–48 hours. Before imaging, cells were rinsed with 1 mL of Hank’s Balanced Salt Solution (HBSS, Life Technologies) supplemented with Ca^2+ (2 mM) and Mg^2+ (1 mM), and imaged at room temperature with a final HBSS volume of either 100 µL for each individual 1.5 cm glass bottom dish, or 500 µL for 24-well plates. Time-lapse imaging was performed on an inverted Zeiss LSM 800 confocal microscope using a 488 nm laser and a 40X oil-based objective. During imaging, ligands were added in bolus on the cells using a micropipette to reach the final specified concentrations of ligand over the cells. For quantification, except otherwise noted, regions of interest (ROI) were selected manually using the threshold function of Fiji to isolate the cell membrane. Sensor response (∆F/F) was calculated as the following: (F(t)-F_base)/F_base with F(t) being the ROI fluorescence value at each time point (t), and F_base being the mean fluorescence of the 10-time points immediately prior to ligand addition.

Consider `Nc1ccncc1` [4-AP, 4-aminopyridine], for which the DA release events result in experiment [1] is on record as “larger localized DA release events started to become noticeable”.
Regarding `NCCc1ccc(O)c(O)c1` [DA, Dopamine], in the experiment with DRD1-MSNs (DA 10 µM bath application vs control), the “number of action potentials evoked by current injection” value is on record as “increased the number of action potentials”.
With `C[C@H]1c2cccc(CCC(C)(C)O)c2C[C@H](CO)N1C(=O)Cc1c(Cl)cccc1Cl` [LY315207, 2-(2,6-Dichlorophenyl)-1-((1S,3R)-5-(3-hydroxy-3-methylbutyl)-3-(hydroxymethyl)-1-methyl-3,4-dihydroisoquinolin-2(1H)-yl)ethan-1-one], the “maximal potentiation of dopamine” value in the experiment with human DRD1 (hmDRD1) is recorded as 75-85%. Besides, the “partial potentiation of dopamine (% of max potentiation)” value at msDRD1 is 45-53%.
Take `Cn1c2ccccc2c(=O)c2c(=O)n(-c3ccccc3)c(C3CCCCC3)nc21` [MLS1082]: the “effect on the DA sensitivity of dLight1.3b” value at dLight1.3b is recorded as “did not have a noticeable effect”.
On the same count and under the same terms, the same measure for `CC(C)(C)C1CCc2c(sc(NC(=O)c3ccncc3)c2C(N)=O)C1` (stereo not shown) [MLS6585]: “did not have a noticeable effect”.
In the case of `Oc1cc2c(cc1O)C(c1ccccc1)CNCC2` (stereo not shown) [SKF38393], in the experiment on DRD1-MSNs (SKF38393 1 µM superfusion), the “firing rate during current-injection of DRD1-MSNs” value is given as “significant increase”.

Source of the values: paper PMC11219860, “A chemogenetic approach for dopamine imaging with tunable sensitivity” (Nature Communications, 2024).
